From ChEMBL document CHEMBL1268875, “Isoflavone derivatives inhibit NF-κB-dependent transcriptional activity” (Bioorg Med Chem Lett, 2010) come the findings set out here.

Assay type in all cases: cell-based
Assay [1] has as its system HCT-116. The assay can be described thus: Inhibition of TNF-alpha-induced Nuclear factor-kappa-B dependent transcriptional activity in human HCT116 cells assessed normalized inhibitory ratio of at 10 uM for 12 hrs by NF-kappaB cis-acting luciferase reporter gene assay relative to untreated control.
Assay [2] deals with HCT-116. The assay can be described thus: Inhibition of TNF-alpha-induced nuclear translocation of Nuclear factor-kappa-B in human HCT116 cells pretreated for 30 mins before stimulation with TNFalpha for 30 mins by Western blot. Background: A western blot detects proteins with antibodies after separation by electrophoresis.
Assay [3] concerns HCT-116. The assay can be described thus: Inhibition of TNF-alpha-induced Nuclear factor-kappa-B-mediated CIAP2 expression in human HCT116 cells pretreated for 30 mins before stimulation with TNFalpha for 15 mins by RT-PCR.
In assay [4] the test system is HCT-116. The assay can be described thus: Inhibition of TNF-alpha-induced Nuclear factor-kappa-B-mediated CXCL1 expression in human HCT116 cells pretreated for 30 mins before stimulation with TNFalpha for 15 mins by RT-PCR.
The subject of assay [5] is HCT-116. The assay is described as follows: Inhibition of TNF-alpha-induced Nuclear factor-kappa-B-mediated XIAP expression in human HCT116 cells pretreated for 30 mins before stimulation with TNFalpha for 15 mins by RT-PCR.

Molecules are shown by their SMILES. The source made the active and inactive calls. No cut-off for these calls is given here.

In the case of `COc1ccc(-c2coc3cc(O)c(OC)cc3c2=O)cc1`, the Ratio in the assay with HCT-116 [1] amounted to 2.37. With `COc1ccc(-c2coc3c(OC)c(OC)ccc3c2=O)cc1`, the Ratio in the assay on HCT-116 [1] was 0.95. Turning to `COc1cc(O)c2c(=O)c(-c3ccc(O)cc3)coc2c1`, the Ratio in the assay on HCT-116 [1] was 0.34.

For the molecule `COc1cc2occ(-c3ccccc3Cl)c(=O)c2cc1Cl`, the Ratio with HCT-116 [1] was 0.54. For the molecule `COc1cc(OC)c2c(=O)c(-c3ccc(OC)c(OC)c3)coc2c1`, the inhibition entry in the assay on HCT-116 [2], in the assay with HCT-116 [3], in the assay with HCT-116 [4] and with HCT-116 [5] was “Active” throughout. In addition, in the assay with HCT-116 [1], the Ratio worked out at 0.19. Consider `COc1cc(C)c2c(=O)c(-c3ccccc3)coc2c1`, for which the Ratio in the assay on HCT-116 [1] was 0.67. On to `COc1ccc(-c2coc3c(C)c(OC)ccc3c2=O)cc1`, for which the Ratio in the assay on HCT-116 [1] came to 0.62. Consider `O=c1c(-c2ccc(O)cc2)coc2c(O)c(O)ccc12`, for which the Ratio in the assay on HCT-116 [1] is 1.22. Still for that read-out and setting: under `COc1cc(OC)c2c(=O)c(-c3ccc(Br)cc3)coc2c1` stands 0.25; under `Cc1c(O)ccc2c(=O)c(-c3ccccc3)coc12`, 0.45. As for `COc1cc(OC)c2c(=O)c(-c3ccccc3Cl)coc2c1`, the Ratio in the assay on HCT-116 [1] worked out at 0.54. Still for that read-out and setting: under `COc1ccc2c(=O)c(-c3ccccc3)coc2c1C` stands 0.23; under `COc1ccc2c(=O)c(-c3ccc(OC)c(OC)c3)coc2c1`, 0.45.

Take `COc1ccc2c(=O)c(-c3ccccc3)coc2c1`: the Ratio in the assay with HCT-116 [1] worked out at 0.36. For `COc1ccc(-c2coc3cc(OC)c(OC)cc3c2=O)cc1OC`, the Ratio in the assay on HCT-116 [1] stood at 0.4. `COc1cc(OC)c2c(=O)c(-c3ccc(Cl)cc3)coc2c1`: the Ratio with HCT-116 [1] amounted to 0.61. Regarding `COc1ccc(-c2coc3cc(OC)c(Cl)cc3c2=O)cc1O`, the Ratio in the assay with HCT-116 [1] is 0.54. Still for that read-out and setting: under `Cc1cc2occ(-c3ccccc3)c(=O)c2cc1Cl` stands 0.32. As for `COc1cc(OC)c2c(=O)c(-c3cccc(Cl)c3)coc2c1`, the Ratio in the assay on HCT-116 [1] is 0.63.

Take `COc1ccc(-c2coc3cc(O)ccc3c2=O)cc1OC`: the Ratio in the assay with HCT-116 [1] is 2.53. Regarding `COc1ccc2c(=O)c(-c3ccc(Cl)cc3)coc2c1C`, in the assay on HCT-116 [1], the Ratio was determined as 0.63. Regarding `Cc1c(O)ccc2c(=O)c(-c3ccc(Cl)cc3)coc12`, the Ratio with HCT-116 [1] was 1.04. `Cc1cc2occ(-c3ccc(Cl)cc3Cl)c(=O)c2cc1Cl`: in the assay with HCT-116 [1], the Ratio turned out to be 0.27.
